Measured values as given in patent publication US20150366824A1, “INDUCTION OF ESTROGEN RECEPTOR BETA BY CHOLESTEROL BIOSYNTHESIS INHIBITORS AND METHODS OF TREATMENT OF CANCER” (THE CURATORS OF THE UNIVERSITY OF MISSOURI, priority 2012, published 2015).

Experiments:
BT-474 cells = assay: Sulforhodamine B (SRB) cell viability assay with ERβ-specific ligands; assay type: cell-based, human; settings: for cell viability: Ro 48-8071 combined with ERβ antagonist PHTPP: BT-474, 10 nM Ro 48-8071 ± 10 or 100 nM PHTPP, 24 h; for cell viability: Ro 48-8071 combined with ERβ agonist DPN: BT-474, 10 nM Ro 48-8071 ± 1 nM DPN, 48 h
Method: FIG. 6. […] BT-474 cells were treated with 10 nM Ro 48-8071±1 nM DPN, or with DPN alone. Cell viability was determined after 48 h using the SRB assay.
FIG. 7. […] BT-474 cells treated with 10 nM Ro 48-8071 for 24 h±10 or 100 nM PH, or with PHTPP alone. Cell viability was determined after 24 h as described previously. […] The anti-proliferative effects of Ro 48-8071 in breast cancer cells is reduced when it is combined with ERβ antagonist.
The sulforhodamine B (SRB) assay was employed to evaluate the effect potent cholesterol biosynthesis inhibitor Ro 48-8071 alone or in combination with ERβ-specific ligands on viability of breast cancer cells, with slight modification of the original procedure established at NCI. Ro 48-8071, and ERβ-specific ligands (either an agonist DPN (diarylpropionitrile), or an antagonist PHTPP (4-[2-phenyl-5,7-bis(trifluoromethyl) pyrazolo[1,5-a]pyrimidin-3-yl]phenol)) (“PH”) were used in BT-474, T47-D, MDA-MB-231, and BT-20 human breast cancer cells in this study.
Accordingly, cells were seeded in 96-well plates in 100 μL culture medium and incubated overnight at 37° C. with 5% CO2. Culture medium was removed after 24 h, and the attached cells were washed with DMEM/F12 medium and treated by Ro 48-8071 alone or with ERβ-specific ligands at various concentrations for 24-48 hrs. […]
The surviving or adherent cells were fixed in situ by withdrawing the growth medium and adding 100 μL of PBS and 100 μL of 50% cold trichloroacetic acid and then incubating at 4° C. for 1 h. Attached cells (that had survived) were washed 5 times with ice-water, dried at room temperature (RT), and then stained with 50 μL […] SRB for 8 min at room temperature (RT). Unbound dye was removed by washing 5 times with cold 1% acetic acid, and the plates were dried at RT. Bound stain was solubilized with 150 μL 10 mM Tris buffer, and absorbance of samples measured at 520 nm with a SpecTRA MAX 190 microplate reader (Sunnyvale, Calif.). Six wells were used for each concentration, and each experiment was performed at least twice.

OSC = target: T1, OSC (Homo sapiens, UniProt P48449); settings: cited from earlier work
T1 sequence (P48449 1-732): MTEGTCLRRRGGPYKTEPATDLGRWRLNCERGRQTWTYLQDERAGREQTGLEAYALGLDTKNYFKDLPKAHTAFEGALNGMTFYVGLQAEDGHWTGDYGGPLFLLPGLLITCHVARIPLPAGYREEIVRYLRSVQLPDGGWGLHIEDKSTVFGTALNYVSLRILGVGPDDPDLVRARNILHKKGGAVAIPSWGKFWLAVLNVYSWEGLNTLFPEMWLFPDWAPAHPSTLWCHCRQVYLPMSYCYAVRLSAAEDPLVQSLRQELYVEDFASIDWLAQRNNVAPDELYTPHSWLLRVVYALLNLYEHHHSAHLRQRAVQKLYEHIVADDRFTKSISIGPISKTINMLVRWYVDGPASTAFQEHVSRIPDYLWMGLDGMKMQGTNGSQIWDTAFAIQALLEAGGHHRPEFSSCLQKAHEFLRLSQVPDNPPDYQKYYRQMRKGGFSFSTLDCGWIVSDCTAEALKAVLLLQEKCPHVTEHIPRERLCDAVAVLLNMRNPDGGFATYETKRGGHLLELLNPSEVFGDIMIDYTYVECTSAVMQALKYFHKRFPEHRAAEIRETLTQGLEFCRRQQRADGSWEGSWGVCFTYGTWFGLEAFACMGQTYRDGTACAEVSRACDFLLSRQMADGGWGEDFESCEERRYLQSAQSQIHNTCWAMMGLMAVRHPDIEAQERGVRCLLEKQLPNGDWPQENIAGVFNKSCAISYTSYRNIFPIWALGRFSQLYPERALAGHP

[1] = test system: human breast cancer xenografts; assay: Human breast cancer xenografts in nude mice; assay type: in vivo
Method: Female athymic nu/nu nude mice, 5 to 6 weeks-old (18-22 g) may be purchased from a number of suppliers, such as Harland Sprague-Dawley, Inc. Nude mice are inoculated with 17β-estradiol pellets (1.7 mg/pellet, 60 days release) 48 hours before inoculating tumor cells. BT-474 human breast cancer cells, 5×10^6 in 0.15 ml solution mixed with matrigel and DMEM/F12 medium (4/1, v/v) are injected into each flank of mouse subcutaneously and both flanks of each mouse are injected. When tumor volume reaches around 100 mm3, animal are randomly assigned to three groups and the treatment started with RO 48-8071 (5 mg/kg/day or 10 mg/kg/day) via tail-vein injection for five days, followed by same treatment every other day for five additional times Animals in control group receive the vehicle alone under identical conditions. Tumor volumes are measured by a digital caliper and calculated using the formula (L×W×H)×0.5236.

T47-D cells = assay: SRB cell viability assay after ERβ siRNA knockdown; assay type: cell-based, human; settings: 60 nM ERβ siRNA, Ro 48-8071 10 nM, 48 h
Method: FIG. 5. […] T47-D cells were treated with either ERβ siRNA (30 and 60 nM; siERβ, Santa Cruz), scrambled RNA (siC) or transfection reagent alone (C) for 72 h (upper panel). In the group treated with 60 nM siRNA, cells were treated with Ro 48-8071 (10 nM) or vehicle alone (C) for 48 h (lower panel) and tumor cell viability was determined using SRB assay as described.
ERβ siRNA (human) and control siRNA were obtained from Santa Cruz Biotechnology, Inc. (Santa Cruz, Calif., e.g. catalog no.s SC-35325 and SC-37007). ERβ siRNA is a pool of 3 target-specific 20-25 nt siRNA designed to knock down ERβ gene expression.
Transfection reagent, oligonucleotides and medium, Opti-MEM were from Invitrogen (Carlsbad, Calif.). The day before transfection, cells were seeded in six-well plates at a density of 8×10̂4 cells per well with 10% FBS DMEM/F12 medium.
To make solution A, ERβ siRNA was diluted in Opti-MEM, resulting in a final concentration of 30 or 60 nM in 100 μl/well and incubate for 5 min at room temperature (RT). […]
The surviving or adherent cells were fixed in situ by withdrawing the growth medium and adding 100 μL of PBS and 100 μL of 50% cold trichloroacetic acid and then incubating at 4° C. for 1 h. […] Bound stain was solubilized with 150 μL 10 mM Tris buffer, and absorbance of samples measured at 520 nm with a SpecTRA MAX 190 microplate reader (Sunnyvale, Calif.). […]

Bcl-2 = assay: Western blot analysis of Bcl-2 protein in T47-D breast cancer cells; assay type: cell-based, human; settings: treatment for six hours
ERβ = assay: Western blot analysis of ERβ protein in breast cancer cells; assay type: cell-based, human; settings: for expression of ERβ protein: treatment for six hours, dose-dependent
Method: (§1) Cells used in these experiments included both the ERα+ve as well as ERα-ve cells, including triple negative types which are very aggressive growing. The ERα+ve cells used were T47-D and BT-474 cells. The ERα-ve cells used were MDA-MB-231, BT-20 and SkBr-3 cells. All cells were grown in media as specified in the data sheet from A TCC, provider of cell lines.
(§2) Whole cell extracts of breast cancer cells were prepared using a whole cell extract kit (Active Motif, Carlsbad, Calif.). Briefly, after treatment with Ro 48-8071, cells were washed once with PBS, harvested with 0.05% trypsin-EDT A, and centrifuged at 200 g at 4° C. for 5 min. Cell pellets were resuspended in lysis buffer and supernatant was transferred into pre-chilled microcentrifuge tubes and incubated on ice for 30 minutes. Samples were centrifuged at 14,000×g at 4° C. for 20 minutes, and supernatant was transferred to pre-chilled microcentrifuge tubes. Aliquots of samples were stored at −80° C. For western blot analysis, samples containing 50 μg of protein were separated in a NuPAGE 10% Bis-Tris Gel (Invitrogen, Carlsbad, Calif.).
(§3) Electrophoresis was performed at 120 V for 2 h using NuPAGE MES-SDS Running Buffer. Separated proteins were transferred to polyvinylidene difluoride membranes (BioRad Laboratories, Hercules, Calif.) at 35 V for 1.5 h.
(§4) Blots were blocked at room temperature (RT) for 1 hr in TBS containing 0.1% Tween 20 (TBS-T) and 5% nonfat dry milk and incubated with antibodies for ERα (dilution 1:200) for 2 h at room temperature, and ERβ (dilution 1:150) at 4° C. overnight. Blots were washed 3 times with TBS-T and incubated with secondary antibody for 1 h at RT before being washed a further 7 times with TBS-T.
(§5) Immunoreactive bands were visualized using an ECL Plus detection kit (Amersham, Pharmacia Biotech, Arlington Heights, Ill.). Membranes were stripped and re-blotted for beta-actin (Sigma), which was used as a control for protein loading. β-actin was used as a loading control to determine amount of total protein loaded in each lane.

ERα = assay: Western blot analysis of ERα protein in breast cancer cells; assay type: cell-based, human; settings: for expression of ERα protein: treatment for six hours, dose-dependent
Method: as §1, §2, §3, §4, §5

[2] = low dose, 10 or 100 nM, seven days

Oc1ccc(-c2c(-c3ccccc3)nn3c(C(F)(F)F)cc(C(F)(F)F)nc23)cc1 [PHTPP, 4-[2-phenyl-5,7-bis(trifluoromethyl)pyrazolo[1,5-a]pyrimidin-3-yl]phenol]
cell viability: Ro 48-8071 combined with ERβ antagonist PHTPP (BT-474 cells): blocks the anti-proliferative effect of Ro 48-8071

N#CC(Cc1ccc(O)cc1)c1ccc(O)cc1 (stereo not drawn) [DPN, 2,3-bis(4-hydroxyphenyl)-propionitrile]
cell viability: Ro 48-8071 combined with ERβ agonist DPN (BT-474 cells): potentiates the ability of Ro 48-8071 to reduce viability

CCN(CC)CCO[C@H]1CC[C@@]2(C)C(=CC[C@@H]3[C@@H]2CC[C@]2(C)C(=O)CC[C@@H]32)C1 [U18666A, 3-beta-(2-(diethylamino)ethoxy)androst-5-en-17-one]
OSC inhibition in words (OSC): potent inhibitor of OSC

C=CCN(C)CCCCCCOc1ccc(C(=O)c2ccc(Br)cc2)c(F)c1 [Ro 48-8071, (4-bromophenyl)[2-fluoro-4-[[6-(methyl-2-propenylamino)hexyl]oxy]phenyl]-methanone]
growth of human breast cancer xenografts [1]: inhibit growing of human breast cancer xenografts
toxicity in xenograft-bearing nude mice [1]: without toxicity
tumor cell viability: effect of ERβ knockdown on the anti-proliferative effect (T47-D cells): blocked the anti-proliferative effect
cell viability: Ro 48-8071 combined with ERβ agonist DPN (BT-474 cells): increased cell death more effectively (additively)
cell viability: Ro 48-8071 combined with ERβ antagonist PHTPP (BT-474 cells): reduced
expression of Bcl-2 protein (Bcl-2): decreased with increasing dose
expression of ERβ protein (ERβ; BT-474 breast cancer cells): induced
expression of ERβ (ERβ; ERα-negative (triple-negative) BT-20 cells): stimulates expression of ERβ
expression of ERβ (ERβ; ERα-negative (triple-negative) MDA-MB-231 cells): stimulates expression of ERβ
expression of ERβ protein (ERβ; T47-D breast cancer cells): induced
expression of ERβ (ERβ; [2]): induced
expression of ERα protein (ERα; BT-474 breast cancer cells): suppressed
expression of ERα protein (ERα; T47-D breast cancer cells): suppressed
expression of ERα (ERα; [2]): suppressed
OSC inhibition in words (OSC): potent inhibitor of OSC
